Reference: the NIST ThermoML archive (doi:10.1021/je800026p)
Numbers after ± are expanded uncertainties.

Experiment: xn = mol fraction of the nth substance listed
Details: 101 kPa, Liquid; for speed of sound: Sing-around technique in a fixed-path interferometer; for mass density: Vibrating tube method

CCCCCCOCCOCCO [2-(2-hexyloxyethoxy)ethanol] + CCCCN
Details | mass density, 288.15 K [kg/m3] | mass density, 293.15 K [kg/m3] | speed of sound, 288.15 K [m/s] | speed of sound, 293.15 K [m/s] | speed of sound, 298.15 K [m/s]
x1 = 0.1165 | 788.964 ± 0.62 | 784.34 ± 0.62 | 1323 ± 2.1 | 1302.2 ± 2.1 | 1281.5 ± 2.1
x1 = 0.1587 | 803.568 ± 0.63 | 799.044 ± 0.63 | 1332.3 ± 2.1 | 1312 ± 2.1 | 1291.7 ± 2.1
x1 = 0.1943 | 814.988 ± 0.64 | 810.552 ± 0.64 | 1339.5 ± 2.1 | 1319.7 ± 2.1 | 1299.7 ± 2.1
x1 = 0.2403 | 828.571 ± 0.66 | 824.179 ± 0.65 | 1348.2 ± 2.1 | 1328.7 ± 2.1 | 1309.1 ± 2.1
x1 = 0.2974 | 843.631 ± 0.67 | 839.297 ± 0.67 | 1357.8 ± 2.1 | 1338.8 ± 2.1 | 1319.6 ± 2.1
x1 = 0.3403 | 853.769 ± 0.68 | 849.458 ± 0.67 | 1364.2 ± 2.1 | 1345.5 ± 2.1 | 1326.6 ± 2.1
x1 = 0.3916 | 864.666 ± 0.69 | 860.386 ± 0.69 | 1371.1 ± 2.1 | 1352.6 ± 2.1 | 1334.1 ± 2.1
x1 = 0.4568 | 876.866 ± 0.7 | 872.668 ± 0.7 | 1378.6 ± 2.1 | 1360.4 ± 2.1 | 1342.2 ± 2.1
x1 = 0.5105 | 885.772 ± 0.71 | 881.607 ± 0.71 | 1383.9 ± 2.1 | 1365.9 ± 2.1 | 1348 ± 2.1
x1 = 0.5658 | 894.125 ± 0.72 | 889.991 ± 0.71 | 1388.5 ± 2.1 | 1370.7 ± 2.1 | 1353 ± 2.1
x1 = 0.6081 | 900.031 ± 0.72 | 895.896 ± 0.72 | 1391.5 ± 2.1 | 1373.9 ± 2.1 | 1356.3 ± 2.1
x1 = 0.6559 | 906.287 ± 0.73 | 902.162 ± 0.73 | 1394.5 ± 2.1 | 1376.9 ± 2.1 | 1359.5 ± 2.1
x1 = 0.6977 | 911.396 ± 0.74 | 907.303 ± 0.73 | 1396.7 ± 2.1 | 1379.2 ± 2.1 | 1361.8 ± 2.1
x1 = 0.7402 | 916.322 ± 0.74 | 912.248 ± 0.74 | 1398.6 ± 2.1 | 1381.2 ± 2.1 | 1363.9 ± 2.1
x1 = 0.8029 | 923 ± 0.75 | 918.949 ± 0.74 | 1400.8 ± 2.1 | 1383.5 ± 2.1 | 1366.4 ± 2.1
x1 = 0.8675 | 928.954 ± 0.76 | 924.929 ± 0.75 | 1402.5 ± 2.1 | 1385.4 ± 2.1 | 1368.3 ± 2.1
x1 = 0.9082 | 932.126 ± 0.76 | 928.121 ± 0.76 | 1403.4 ± 2.1 | 1386.3 ± 2.1 | 1369.3 ± 2.1
x1 = 0.9635 | 935.472 ± 0.76 | 931.477 ± 0.76 | 1404.3 ± 2.1 | 1387.4 ± 2.1 | 1370.4 ± 2.1
